Earlier results, collected in EP1754488A1, “Methods and compositions for non-viral gene therapy for treatment of hyperproliferative diseases” (Introgen Therapeutics, Inc., priority 1999, dated 2000).
Structures can show the parent of a compound that is named as a salt. Each block holds one compound with its values, some of them ahead of it. *1 amine or outer side, *2 acyl side, *3 side chain or, on linkers, in order; H or OH if unused. Where a SMILES comes first, the peptide text is derived from it. Bridges are numbered along the chain shown (N, C = ends). Roman numbers before positions name the chains, in order. [ ]: non-standard residue; d: D form. Actinocin(9to1) = Cc1c2oc3c(C)ccc(C(=O)[*:1])c3nc-2c(C(=O)[*:2])c(N)c1=O; NMeV = CN[C@H](C(=O)O)C(C)C; Sar = CNCC(=O)O

Assays:
[1] = system: multiple myeloma; settings: oral administration

Structure (SMILES): Cc1c2oc3c(C)ccc(C(=O)N[C@@H]4C(=O)N[C@H](C(C)C)C(=O)N5CCC[C@H]5C(=O)N(C)CC(=O)N(C)[C@@H](C(C)C)C(=O)O[C@@H]4C)c3nc-2c(C(=O)N[C@@H]2C(=O)N[C@H](C(C)C)C(=O)N3CCC[C@H]3C(=O)N(C)CC(=O)N(C)[C@@H](C(C)C)C(=O)O[C@@H]2C)c(N)c1=O [Actinomycin D] (I: T[dV]P[Sar][NMeV] / II: T[dV]P[Sar][NMeV]; ester I:1-I:C, II:1-II:C; linker I:N-II:N via Actinocin(9to1))
excreted / detected intact in the urine (in vivo): 10%
excreted intact into the bile (in vivo): Half of the dose

Structure (SMILES): COc1cccc2c1C(=O)c1c(O)c3c(c(O)c1C2=O)C[C@@](O)(C(C)=O)C[C@@H]3O[C@H]1C[C@H](N)[C@H](O)[C@H](C)O1 [Daunorubicin, 5,12-Naphthacenedione, (8S-cis)-8-acetyl-10-[(3-amino-2,3,6-trideoxy-a-L-lyxo-hexanopyranosyl)oxy]-7,8,9,10-tetrahydro-6,8,11-trihydroxy-10-methoxy-, hydrochloride]
half-life of distribution (in vivo): 0.75 h

Structure (SMILES): O=NN(CCCl)C(=O)NC1CCCCC1 [Lomustine, 1-(2-chloro-ethyl)-3-cyclohexyl-1 nitrosourea]
radioactivity excreted in the form of degradation products within 24 hours (oral radioactive lomustine, 30 mg/m^2 to 100 mg/m^2): about half of the radioactivity

Structure (SMILES): N[C@@H](Cc1ccc(N(CCCl)CCCl)cc1)C(=O)O [Melphalan, 4-[bis(2-chloroethyl)amino]-L-phenylalanine]
patients showing a favorable response [1]: about one third to one half of the patients

excreted / detected intact in the urine (in vivo): Approximately 15%
half-life of disappearance from plasma after distribution (first) (intravenous injection): approximately 1 hours
half-life of disappearance from plasma after distribution (second) (intravenous injection): ~72000 s
Structure (SMILES): CC[C@]1(O)C[C@@H]2CN(CCc3c([nH]c4ccccc34)[C@@](C(=O)OC)(c3cc4c(cc3OC)N(C)[C@H]3[C@@](O)(C(=O)OC)[C@H](OC(C)=O)[C@]5(CC)C=CCN6CC[C@]43[C@@H]65)C2)C1 [Vinblastine]
